Experimental data taken from PubChem BioAssay (NCI).
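48-hour exposure; five concentrations; linearly interpolated endpoints. TGI marks complete inhibition of growth.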

How the values were obtained:
Test in all cases: NCI tumour cell line growth inhibition, 48 h
786-0 renal = test system: 786-0 renal
A498 renal = test system: A498 renal
A549 NSCLC = test system: A549 NSCLC
ACHN renal = test system: ACHN renal
BT-549 breast = test system: BT-549 breast
CAKI-1 renal = test system: CAKI-1 renal
COLO 205 colon = test system: COLO 205 colon
DU-145 prostate = test system: DU-145 prostate
EKVX NSCLC = test system: EKVX NSCLC
HCC-2998 colon = test system: HCC-2998 colon
HCT-116 colon = test system: HCT-116 colon
HCT-15 colon = test system: HCT-15 colon
HL-60(TB) leukemia = test system: HL-60(TB) leukemia
HOP-62 NSCLC = test system: HOP-62 NSCLC
HOP-92 NSCLC = test system: HOP-92 NSCLC
HT29 colon = test system: HT29 colon
K-562 leukemia = test system: K-562 leukemia
KM12 colon = test system: KM12 colon
LOX IMVI melanoma = test system: LOX IMVI melanoma
M14 melanoma = test system: M14 melanoma
MALME-3M melanoma = test system: MALME-3M melanoma
MCF7 breast = test system: MCF7 breast
MDA-MB-231 breast = test system: MDA-MB-231 breast
MDA-MB-435 = test system: MDA-MB-435
MOLT-4 leukemia = test system: MOLT-4 leukemia
NCI-H226 lung = test system: NCI-H226 lung
NCI-H23 lung = test system: NCI-H23 lung
NCI-H460 lung = test system: NCI-H460 lung
NCI/ADR-RES ovarian = test system: NCI/ADR-RES ovarian
OVCAR-3 ovarian = test system: OVCAR-3 ovarian
OVCAR-4 ovarian = test system: OVCAR-4 ovarian
OVCAR-5 ovarian = test system: OVCAR-5 ovarian
PC-3 prostate = test system: PC-3 prostate
RPMI-8226 leukemia = test system: RPMI-8226 leukemia
RXF 393 renal = test system: RXF 393 renal
SF-295 CNS = test system: SF-295 CNS
SF-539 CNS = test system: SF-539 CNS
SK-MEL-2 melanoma = test system: SK-MEL-2 melanoma
SK-MEL-28 melanoma = test system: SK-MEL-28 melanoma
SK-MEL-5 melanoma = test system: SK-MEL-5 melanoma
SK-OV-3 ovarian = test system: SK-OV-3 ovarian
SNB-19 CNS = test system: SNB-19 CNS
SNB-75 CNS = test system: SNB-75 CNS
SR leukemia = test system: SR leukemia
SW-620 colon = test system: SW-620 colon
T-47D breast = test system: T-47D breast
TK-10 renal = test system: TK-10 renal
U251 CNS = test system: U251 CNS
UACC-62 melanoma = test system: UACC-62 melanoma
UO-31 renal = test system: UO-31 renal

In the case of `COc1ccc(-c2cc(-c3ccc(Nc4ccnc5cc(C(F)(F)F)ccc45)cc3)nc(N)c2C#N)cc1`, the TGI (786-0 renal) is reported as over 100 µM, the TGI (A498 renal) is reported as over 100 µM and the TGI (A549 NSCLC) is reported as over 100 µM. It also gave a TGI (ACHN renal) of over 100 µM, a TGI (BT-549 breast) of over 100 µM and a TGI (CAKI-1 renal) of over 100 µM. For the same compound, the TGI (COLO 205 colon) was over 100 µM, the TGI (DU-145 prostate) was over 100 µM and the TGI (EKVX NSCLC) was over 100 µM. It also gave a TGI (HCC-2998 colon) of over 100 µM, a TGI (HCT-116 colon) of 78.7 µM and a TGI (HCT-15 colon) of over 100 µM. For the same compound, the TGI (HL-60(TB) leukemia) was over 100 µM, the TGI (HOP-62 NSCLC) was over 100 µM and the TGI (HOP-92 NSCLC) was 90 µM. It also gave a TGI (HT29 colon) of over 100 µM, a TGI (K-562 leukemia) of over 100 µM and a TGI (KM12 colon) of over 100 µM. It also gave a TGI (LOX IMVI melanoma) of over 100 µM, a TGI (M14 melanoma) of over 100 µM and a TGI (MALME-3M melanoma) of over 100 µM. The TGI (MCF7 breast) was over 100 µM, the TGI (MDA-MB-231 breast) was over 100 µM and the TGI (MDA-MB-435) was over 100 µM. The TGI (MOLT-4 leukemia) was over 100 µM, the TGI (NCI-H226 lung) was over 100 µM and the TGI (NCI-H23 lung) was over 100 µM. For the same compound, the TGI (NCI-H460 lung) was over 100 µM, the TGI (NCI/ADR-RES ovarian) was over 100 µM and the TGI (OVCAR-3 ovarian) was 33.7 µM. The TGI (OVCAR-4 ovarian) was over 100 µM, the TGI (OVCAR-5 ovarian) was over 100 µM and the TGI (PC-3 prostate) was over 100 µM. The TGI (RPMI-8226 leukemia) was over 100 µM, the TGI (RXF 393 renal) was over 100 µM and the TGI (SF-295 CNS) was over 100 µM. For the same compound, the TGI (SF-539 CNS) was over 100 µM, the TGI (SK-MEL-2 melanoma) was over 100 µM and the TGI (SK-MEL-28 melanoma) was over 100 µM. For the same compound, the TGI (SK-MEL-5 melanoma) was over 100 µM, the TGI (SK-OV-3 ovarian) was over 100 µM and the TGI (SNB-19 CNS) was over 100 µM. For the same compound, the TGI (SNB-75 CNS) was 71.6 µM, the TGI (SR leukemia) was over 100 µM and the TGI (SW-620 colon) was over 100 µM. The TGI (T-47D breast) was over 100 µM, the TGI (TK-10 renal) was over 100 µM and the TGI (U251 CNS) was over 100 µM. For the same compound, the TGI (UACC-62 melanoma) was over 100 µM and the TGI (UO-31 renal) was over 100 µM.
